The record followed here is US20060123492A1, “Methods of identifying modulators of NMUR2-mediated activity” (priority 2003, published 2006).

The subject of one assay is NMUR2 knock-out mice. The assay can be described thus: Tail flick test, effect of morphine in NMUR2 knock-out mice. Format: in vivo. The settings on record: adult male NMUR2 knock-out mice, 30 minutes after injection. The text has this: (§1) Mice were gently held on a platform of an automated apparatus wrapped in a soft cloth. Their tails were exposed and extended in a straight line along a narrow groove. Once the tail was laying flat in the groove, the experimenter activated a high-intensity and heat producing narrow beam of light that was directed at a small spot in the tail. When the animal reached its pain threshold, a spinal reflex caused the tail to “flick” out of the light beam, automatically stopping a timer that started when the beam was activated. Each animal was tested 3 times, on different regions of the tail, and the median latency to “flick” was recorded as the nociceptive threshold. Experiments were performed blind with respect to the animals' genotype. The results are shown in FIGS. 1 and 2 in wild-type, heterozygous, and NMUR2 knock-out mice (FIG. 1) and for male and female mice (FIG. 2).
(§2) Adult male mice were treated with the mu opiate receptor agonist morphine at either 0, 2.5, 5, or 10 mg/kg sub-cutaneously. At each dose, 4 wild type mice and 4 knock-outs were treated. Tail flick latencies were determined 30 minutes after injection of morphine or vehicle, with a maximum flick latency of 15 seconds allowed to prevent tissue damage. […] The difference between the tail flick latencies of the two genotypes at 2.5 mg/kg morphine could not be accounted for by the baseline difference in tail flick latencies normally observed between the wild types and the knock-outs, both because the difference in latency was larger, and because the enhancement of morphine analgesia is significant while the mild baseline analgesia observed in the NmUR2 knock-outs was not.
Background: Hot-plate and tail-flick tests time the reaction to a heat stimulus.

The test system of another assay is wild type mice. The assay can be described thus: Tail flick test, effect of morphine in wild type mice. Format: in vivo. The settings on record: adult male wild type mice, 30 minutes after injection.
Description: as §1, §2

For the compound `CN1CC[C@]23c4c5ccc(O)c4O[C@H]2[C@@H](O)C=C[C@H]3[C@H]1C5` [morphine], the “analgesia (tail flick latency)” value is reported as “augmented analgesia” with NMUR2 knock-out mice (2.5 mg/kg sub-cutaneously); “maximal analgesia” in the assay on NMUR2 knock-out mice (5 mg/kg sub-cutaneously); “maximal analgesia” with NMUR2 knock-out mice (10 mg/kg sub-cutaneously); “mild analgesia” in the assay with wild type mice (2.5 mg/kg sub-cutaneously); “maximal analgesia” with wild type mice (5 mg/kg sub-cutaneously); “maximal analgesia” in the assay with wild type mice (10 mg/kg sub-cutaneously). In addition, in the assay with NMUR2 knock-out mice (2.5 mg/kg sub-cutaneously, maximum flick latency of 15 seconds allowed), the tail flick latency was determined as 15 s.
